# What was measured:
# [1] = test system: GVHD mice; test: GVHD model in irradiated BALB/c mice; type: in vivo
# Experimental: Construction of GVHD model: Apply myeloablativetotal body irradiation (TBI, 710cGy) (HI-ENERGY PRIMV S-M X-ray source) on female BALB/c (H-2d) mice, and inject the bone marrow cell of […] of C57BL/6(B6, H-2^b) mice into it within 2 hours, and inject the B6spleen cells of […] into some of these female BALB/c (H-2d) mice at some time.
# Groups: GVHD mice are divided into 4 groups, where the first group is control group, and the 8 mice in the group are provided with no post operation treatment; the second group is provided with intragastric administration of TJM2010-5 of 50 mg/kg/day since the day of irradiation; the third group is the MR1 group, in which the 8 mice are provided with the treatment of MR1 of 10 mg/kg/time on day 0, 1, 2, 3, 7 and 14 after irradiation; the forth group is the combination treatment group (TJM2010-5+MR1), in which the 8 mice are treated with TJM2010-5 and MR1 by the method mentioned above.
# In case TJM2010-5 is combined with MR1, it can reverse 100% of GVHD. However, other aminothiazole compounds have no or little such curative effect.
# [2] = test system: RAW264.7 cell; test: CD80 expression on RAW264.7 (macrophage) cells by flow cytometry; type: cell-based
# Experimental: TJM2010-5 can inhibit the up-regulation of RAW264.7 cell on costimulatory molecules CD80 caused by TLR stimulant (LPS, CpG), which means that TJM2010-5 can effectively block the TLR signal pathway, thus to inhibit the cells' immune reaction.
# Raw264.7: Place the cells into a 48-pore plate, the number of cells is 9×10^5/pore, and 1 ml of medium system is added to each pore. Firstly, add TJM2010-5 of different concentration gradients to pre-incubate the cells for 2 h, then, add the CPG to get the final concentration of 40 ug/ml, and then incubate them in CO2 incubator at 37° C. for one night (12 h). Add the flow antibody FITC to label anti-CD80, CD86, and conduct detection with machine;
# (§1) Add the flow antibody FITC to label anti-CD80, CD86, and conduct detection with machine.
# [3] = test system: DC; test: CD80/CD86 expression on bone marrow DC by flow cytometry; type: cell-based, mice
# Experimental: 1. Derive the bone marrow cell from the BALB/c mice administrated with TJM2010-5, destruct the red blood cell, and place them into the RPMI1640 medium with the concentration of 2×10^6/ML (adding GM-CSF of 10 ng/ml, IL-4 of 10 ng/ml);
# 2. Remove the suspension cell 48 hours later, and collect the suspension and anchorage-dependent cell on day 6.
# 3. Place DCs into […] of TJM2010-5 for cultivating for 1 hour, add necrotic myocardium supernate, LPS (200 ng/ml), Poly I:C (20 mg/ml), CpG (10 mg/ml) to cultivate the cells for 12 hours.
# 4. Add the flow antibody FITC to label anti-CD80, CD86, and conduct detection with machine.
# DC: Place the cells into a 48-pore plate, the number of cells is 1×10^6/pore, and 1 ml of medium system is added to each pore. Firstly, add TJM2010-5 of different concentration gradients to pre-incubate the cells for 2 h, then, add the LPS to get the final concentration of 1 ug/ml, and then incubate them in CO2 incubator at 37° C. for one night (12 h).
# as §1
# [4] = test system: T cells; test: activation of T cells (FIG. 3a); type: cell-based
# [5] = test system: inflammatory factors (IL-1β, TNF-α, IL-6) in graft; test: real time quantitative PCR of inflammatory factors in graft; type: in vivo, mice
# From the text: 1. Extract the total RNA from the receptor receiving antigen (homogenic, allogenic) stimulation by the TRIzol method;
# 2. Reversely transcribe them to cDNA by the two-step method of RT-PCR;
# 3. Make the standard curve to compare the measured relative level of IL-1β, TNF-α, IL-6.
# [6] = test system: mice with pyohemia; test: pyohemia / septicopyemia lethal experiment (cecal ligation and puncture); type: in vivo; conditions: CLP; 250 mg/kg intragastric 4 times every 12 h; FIG. 15(b)
# Experimental: Part two: Observe the effect of MyD88 inhibitor on mortality of mice with pyohemia. The mice will be randomly divided into: sham-operation group, model group, MyD88 inhibitor treatment group. Except for the mice in sham-operation group that only receive post-operative suture, the mice in pyohemia model group and MyD88 inhibitor treatment group are provided with the cecal ligation and puncture (CLP), to copy the pyohemia mice model. At 1 h after operation, apply intragastric administration of 0.5% CMC 200 μL or TJM2010-5 of 250 mg/kg (200 μL) for 4 times successively, and each time lasts for 12 h. After operation, observe the survival rate of mice in each group every 12 h, and for 72 h successively.
structure (smiles),measurement,setting,value
"O=C(CCN1CCN(Cc2ccccc2)CC1)Nc1nc(-c2ccccc2)cs1 [TJM2010-5, 3-(4-benzylpiperazin-1-yl)-N-(4-phenylthiazol-2-yl) propanamide]",weight vs control group,"[1]; 50 mg/kg/day intragastric since day of irradiation, FIG. 2a-A",higher than that of control group
same,GVHD level vs control group,"[1]; 50 mg/kg/day intragastric, FIG. 2a-B",significantly lower than that of control group
same,survival rate vs control group,"[1]; 50 mg/kg/day intragastric, FIG. 2a-C",significantly higher than that of control group
same,general performances of mice,[1]; FIG. 2c,close to normal mice
same,GVHD reversed,[1]; TJM2010-5 alone or combined with MR1,70%
same,survival rates of the mice after 60 days,"[1]; each TJM2010 compound combined with MR1, 50 mg/kg/day intragastric, 8 mice per group",100%
same,"up-regulation of costimulatory molecule CD80 caused by TLR stimulant (LPS, CpG)",[2]; RAW264.7 cell,inhibit
same,expression of CD80 on macrophage surface,"[2]; Raw264.7, 2 h pre-incubation, CPG 40 ug/ml, 12 h, FIG. 3d",concentration-dependent inhibition
same,"up-regulation of costimulatory molecules CD80/CD86 incurred by LPS, CpG",[3],inhibit up-regulation
same,expression of CD80 on DC surface,"[3]; DC, 2 h pre-incubation, LPS 1 ug/ml, 12 h, FIG. 3c",concentration-dependent inhibition
same,"CD80 expression on DC stimulated by LPS, CPG, cardiac tissue homogenate",[3]; FIG. 3b,down-regulate
same,activation of T cells,[4],dose-dependently reduce
same,"level of inflammatory factors (IL-1β, TNF-α, IL-6) in heart graft vs control group",[5]; FIG. 9,significantly lower than that of control group
same,level of IL-1β in graft vs CMC allogeneic transplantation group,[5]; FIG. 9a,significantly lower than those in CMC allogeneic transplantation group
same,level of IL-6 in graft vs CMC allogeneic transplantation group,[5]; FIG. 9c,significantly lower than those in CMC allogeneic transplantation group
same,death time and final mortality of pyohemia in mice,[6],significantly improve
